# Columns and labels:
# [1] = tested on: antigen-positive E3 cell line; details: read-out: IC50 (cytotoxicities); cited from earlier work
# E3 target cells = details: read-out: IC50 (selective cytotoxicity); cited from earlier work
# lysosomal hydrolases = details: cited from earlier work
# [2] = tested on: hematological tumor cells; experiment: HSC70 vaccine protection against hematological tumor cells in mice; format: in vivo; details: mice vaccinated prior to injection of tumor cells versus not vaccinated
compound,measurement,setting,value
"O=c1[nH]c(=O)n([C@H]2C[C@H](O)[C@@H](CO)O2)cc1F [FUDR, 5-fluoro-2′-deoxyuridine]",IC50,[1],0.4 nM
"CC(=O)[C@]1(O)Cc2c(O)c3c(c(O)c2[C@@H](O[C@H]2C[C@H](N)[C@H](O)[C@H](C)O2)C1)C(=O)c1ccccc1C3=O [Ida, Idarubicin]",IC50,E3 target cells,120 nM
Ala-Leu-Dau [Ala-Leu-Dau derivative],time for conversion back to the free drug by lysosomal hydrolases,lysosomal hydrolases,2 h
"HSC70: purified full length murine HSC70 protein used as vaccine antigen, may be administered with an adjuvant",tumor size,[2],smaller
